US7651661B2, “Medical devices with broad spectrum antimicrobial activity” (Board of Regents, the University of Texas System, priority 2001, dated 2010)

Tested on: PS4205 (Pseudomonas aeruginosa)
Assay: Zones of inhibition of impregnated devices, modified Kirby-Bauer technique
Format: cell-based
Procedure: Potassium tert-butoxide in THF, 7.35 ml of 1M solution, was added to a solution of CHX diacetate, 1.533 g; 2.45 mmol in 35 ml THF. The resulting heterogeneous solution was stirred for 20 minutes, then added to a solution GV, 1.0 g; 2.45 mmol, in 30 ml THF (GV used as an example of Triarylmethane Dye). The mixture was stirred at ambient conditions for 1 hour, then placed under the hood overnight to evaporate the solvent. The resulting residue was dissolved in 30 ml DCM (or MeOH). When applicable, the base (such as neutral form of chlorhexidine) is added to a stirring solution of dye (such as GV) in DCM and the resulting mixture is stirred for at least 1 h. With anionic dyes, dissolution is achieved with the addition of at least one equivalent of a quaternary amine (such as tetraethylammonium) prior to addition of the base. One-centimeter device segments were immersed in the DCM solution for the appropriate period, generally PVC and PU for 10 minutes; Silicone (Si) and Silk Suture for 2 hours. The devices were removed from the solution, and traces of solution were removed from the lumen when applicable. The impregnated devices were placed under the hood to dry for at least 4 hours, preferably over night, then washed with distilled water until the washings were colorless or very faint, and finally placed under an aseptic hood to dry under ambient conditions for at least 4 hours, preferably overnight.
The antimicrobial activity of impregnated catheters was evaluated in duplicate by a modified Kirby-Bauer technique. BBL Mueller Hinton II agar plates (obtained from Fisher Scientific) were inoculated with 0.5 McFarland of the appropriate microorganism (hospital isolates from the MD Anderson Cancer Center). Then 10 mm segments of impregnated devices were embedded in the inoculated plates and placed in an incubator at about 37° C. for at least 18 hours. Zones of inhibition were measured perpendicular to the long axis of the device. Bioactivity against yeast constituted of two zones; a large outer zone of partial growth inhibition, and an inner smaller zone of complete inhibition. […]

[1] = PVC and silicone (Si) devices impregnated with the reagent alone

SMILES	activity against Pseudomonas aeruginosa [1]	activity against Pseudomonas aeruginosa (after impregnating the surfaces of various polymers, including polyvinylchloride)
[H]/N=C(\N/C(=N/[H])NCCCCCCNC(=N)NC(=N)Nc1ccc(Cl)cc1)Nc1ccc(Cl)cc1 [CHX, chlorhexidine]	no activity	–
CN(C)c1ccc(C(=C2C=CC(=[N+](C)C)C=C2)c2ccc(N(C)C)cc2)cc1 [GV, Gentian violet]	no activity	no activity
